{
  "source": "patent US6737383B1",
  "about": "“Herbicidal oxadiazolidines” (priority 1999, dated 2004)",
  "key": {"[1]": {"system": "morningglory", "assay": "Test B pre/postemergence morningglory", "type": "in vivo, Ipomoea hederacea", "summary_of_the_method": "(§1)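 Test chemicals in a non-phytotoxic solvent mixture with surfactant were sprayed preemergence onto planted seeds and postemergence onto plants 2 to 18 cm tall (1- to 4-leaf stage). After twelve to sixteen days in a greenhouse, injury was visually rated against untreated controls from 0 (no effect) to 10 (complete control).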"}, "[2]": {"system": "rape", "assay": "Test B pre/postemergence rape", "type": "in vivo, Brassica napus", "summary_of_the_method": "as §1"}, "[3]": {"system": "smallflower flatsedge", "assay": "Test B flood test smallflower flatsedge", "type": "in vivo, Cyperus difformis", "summary_of_the_method": "(§2)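 Read-out is a visual response score from 0 (no effect) to 10 (complete control), assigned by comparison with untreated controls. Treatment was applied at the 2-leaf stage, and plants stayed in the greenhouse for twelve to sixteen days before scoring.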"}, "[4]": {"system": "bamyardgrass", "assay": "Test B flood test barnyardgrass", "type": "in vivo, Echinochloa crus-galli", "summary_of_the_method": "as §2"}, "[5]": {"system": "winter wheat", "assay": "Test E winter wheat", "type": "in vivo, Triticum aestivum", "conditions": "Postemergence", "experimental": "[…] All plant species were grown using normal greenhouse practices. Crop and weed species include annual bluegrass (Poa annua), blackgrass (Alopecurus myosuroides), black nightshade (Solanum nigra), chickweed (Stellaria media), common poppy (Papaver rhoeas), deadnettle (Lamium amplexicaule), downy brome (Bromus tectorum), field violet (Viola arvensis), galium (Galium aparine), green foxtail (Setaria viridis), Italian ryegrass (Lolium multiflorum), jointed goatgrass (Aegilops cylindrica), kochia (Kochia scoparia), lambsquarters (Chenopodium album), littleseed canarygrass (Phalaris minor), rape (Brassica napus), redroot pigweed (Amaranthus retroflexus), Russian thistle (Salsola kali), scentless chamomile (Matricaria inodora), spring barley (Hordeum vulgare), sugar beet (Beta vulgaris), sunflower (Helianthus annuus), ivyleaf speedwell (Veronica hederaefolia), spring wheat (Triticum aestivum), winter wheat (Triticum aestivum), wild buckwheat (Polygonum convolvulus), wild mustard (Sinapis arvensis), wild oat (Avena fatua), windgrass (Apera spica-venti) and winter barley (Hordeum vulgare).\nTreated plants and untreated controls were maintained in a greenhouse for approximately 21 to 28 days, after which all treated plants were compared to untreated controls and visually evaluated. […] A dash response (-) means no test result."}, "[6]": {"system": "blackgrass", "assay": "Test E blackgrass", "type": "in vivo, Alopecurus myosuroides", "conditions": "Preemergence; for Blackgrass plant response rating (0 to 100 scale): Rate 250 g/ha"}, "[7]": {"system": "green foxtail", "assay": "Test E green foxtail", "type": "in vivo, Setaria viridis", "conditions": "Preemergence; for Green foxtail plant response rating (0 to 100 scale): Rate 250 g/ha"}, "[8]": {"system": "Italian ryegrass", "assay": "Test E Italian ryegrass", "type": "in vivo, Lolium multiflorum", "conditions": "Preemergence; for I. Ryegrass plant response rating (0 to 100 scale): Rate 250 g/ha"}, "[9]": {"system": "winter wheat", "assay": "Test E winter wheat", "type": "in vivo, Triticum aestivum", "conditions": "Preemergence; for Wheat (winter) plant response rating (0 to 100 scale): Rate 250 g/ha"}, "[10]": {"system": "wild oat", "assay": "Test E wild oat", "type": "in vivo, Avena fatua", "conditions": "Preemergence; for Wild oat plant response rating (0 to 100 scale): Rate 250 g/ha"}, "[11]": {"system": "winter barley", "assay": "Test E winter barley", "type": "in vivo, Hordeum vulgare", "conditions": "Preemergence; for Barley (winter) plant response rating (0 to 100 scale): Rate 250 g/ha"}, "[12]": {"conditions": "Preemergence, Rate 62 g/ha, scale 0 to 10 (0 no effect, 10 complete control)"}, "[13]": {"conditions": "Preemergence, Rate 125 g/ha, 0 is no effect, 10 is complete control"}, "[14]": {"conditions": "Preemergence, Rate 250 g/ha, scale 0 to 10, 0 is no effect, 10 is complete control"}, "[15]": {"conditions": "Preemergence, Rate 500 g/ha, scale 0 to 10 (0 no effect, 10 complete control)"}, "[16]": {"conditions": "Rate 62 g/ha, Postemergence, scale of 0 to 10 where 0 is no effect and 10 is complete control"}, "[17]": {"conditions": "Rate 250 g/ha, Postemergence, scale 0 to 10, 0 is no effect, 10 is complete control"}, "[18]": {"conditions": "Rate 500 g/ha, Postemergence, scale 0 to 10"}, "[19]": {"conditions": "Postemergence (flood test species), Rate 125 g/ha, scale of 0 to 10 where 0 is no effect and 10 is complete control"}, "[20]": {"conditions": "Rate 62 g/ha, Postemergence section, flood test species, scale of 0 to 10 where 0 is no effect and 10 is complete control"}, "[21]": {"conditions": "Rate 250 g/ha, Postemergence (flood test), scale 0 to 10, 0 is no effect, 10 is complete control"}, "[22]": {"conditions": "Rate 125 g/ha, 0 to 100 scale (0 no effect, 100 complete control)"}, "[23]": {"conditions": "Preemergence, Rate 62 g/ha, scale of 0 to 10 where 0 is no effect and 10 is complete control"}, "[24]": {"conditions": "Preemergence, Rate 250 g/ha, scale of 0 to 10 where 0 is no effect and 10 is complete control"}, "[25]": {"conditions": "Preemergence, Rate 500 g/ha, scale of 0 to 10 where 0 is no effect and 10 is complete control"}, "[26]": {"conditions": "Rate 62 g/ha, Postemergence, scale 0 to 10, 0 no effect, 10 complete control"}, "[27]": {"conditions": "Rate 125 g/ha, Postemergence, scale of 0 to 10 where 0 is no effect and 10 is complete control"}, "[28]": {"conditions": "Rate 125 g/ha, Preemergence, scale of 0 to 10 where 0 is no effect and 10 is complete control"}, "[29]": {"conditions": "Rate 250 g/ha, Postemergence, scale of 0 to 10 where 0 is no effect and 10 is complete control"}, "[30]": {"conditions": "Rate 62 g/ha, headed Pre-emergence (flood test species), scale 0 to 10 (0 no effect, 10 complete control)"}, "[31]": {"conditions": "Rate 125 g/ha, Pre-emergence, flood test species, scale 0 to 10 where 0 is no effect and 10 is complete control"}, "[32]": {"conditions": "Rate 250 g/ha, Pre-emergence, flood-test species, scale 0 to 10, 0 is no effect, 10 is complete control"}, "[33]": {"conditions": "Rate 500 g/ha, Pre-emergence, flood test species, scale 0 to 10 (0 no effect, 10 complete control)"}},
  "data": [
    {"molecule": "CC(C)N(C(=O)n1oc(=O)n(C)c1=O)c1ccc(Cl)cc1", "note": "[Compound 137]", "values": [
      {"measurement": "Morningglory plant response rating", "setting": "[1]; Postemergence, Rate 125 g/ha, scale of 0 to 10 where 0 is no effect and 10 is complete control", "value": 7},
      {"measurement": "Morningglory plant response rating", "setting": "[1]; [12]", "value": 0},
      {"measurement": "Morningglory plant response rating (0 to 10 scale)", "setting": "[1]; [13]", "value": 0},
      {"measurement": "Morningglory plant response rating", "setting": "[1]; [14]", "value": 0},
      {"measurement": "Morningglory plant response rating", "setting": "[1]; [15]", "value": 1},
      {"measurement": "Morningglory plant response rating", "setting": "[1]; [16]", "value": 7},
      {"measurement": "Plant response rating, Morningglory", "setting": "[1]; [17]", "value": 7},
      {"measurement": "Morningglory plant response rating", "setting": "[1]; [18]", "value": 8},
      {"measurement": "Rape plant response rating", "setting": "[2]; [12]", "value": 0},
      {"measurement": "Rape plant response rating (0 to 10 scale)", "setting": "[2]; [13]", "value": 4},
      {"measurement": "Rape plant response rating", "setting": "[2]; [14]", "value": 10},
      {"measurement": "Rape plant response rating", "setting": "[2]; [15]", "value": 10},
      {"measurement": "Rape plant response rating", "setting": "[2]; [16]", "value": 0},
      {"measurement": "Plant response rating, Rape", "setting": "[2]; [17]", "value": 6},
      {"measurement": "Rape plant response rating", "setting": "[2]; [18]", "value": 7},
      {"measurement": "S. Flatsedge plant response rating", "setting": "[3]; [19]", "value": 0},
      {"measurement": "S. Flatsedge plant response rating", "setting": "[3]; [20]", "value": 0},
      {"measurement": "Plant response rating, S. Flatsedge", "setting": "[3]; [21]", "value": 0},
      {"measurement": "Barnyardgrass plant response rating", "setting": "[4]; [19]", "value": 0},
      {"measurement": "Barnyardgrass plant response rating", "setting": "[4]; Rate 31 g/ha, Postemergence section (flood test species), scale 0 to 10", "value": 0},
      {"measurement": "Barnyardgrass plant response rating", "setting": "[4]; [20]", "value": 0},
      {"measurement": "Plant response rating, Barnyardgrass", "setting": "[4]; [21]", "value": 0},
      {"measurement": "Plant response rating, Wheat (winter)", "setting": "[5]; Rate 125 g/ha, 0 to 100 scale", "value": 10},
      {"measurement": "Wheat (winter) plant response rating", "setting": "[5]; Rate 250 g/ha, 0 to 100 scale where 0 is no effect and 100 is complete control", "value": 20},
      {"measurement": "Plant response rating, Blackgrass", "setting": "[6]; [22]", "value": 20},
      {"measurement": "Blackgrass plant response rating (0 to 100 scale)", "setting": "[6]", "value": 30},
      {"measurement": "Plant response rating, Green foxtail", "setting": "[7]; [22]", "value": 15},
      {"measurement": "Green foxtail plant response rating (0 to 100 scale)", "setting": "[7]", "value": 50},
      {"measurement": "Plant response rating, I. Ryegrass", "setting": "[8]; [22]", "value": 20},
      {"measurement": "I. Ryegrass plant response rating (0 to 100 scale)", "setting": "[8]", "value": 50},
      {"measurement": "Plant response rating, Wheat (winter)", "setting": "[9]; [22]", "value": 20},
      {"measurement": "Wheat (winter) plant response rating (0 to 100 scale)", "setting": "[9]", "value": 30},
      {"measurement": "Plant response rating, Wild oat", "setting": "[10]; [22]", "value": 20},
      {"measurement": "Wild oat plant response rating (0 to 100 scale)", "setting": "[10]", "value": 10},
      {"measurement": "Plant response rating, Barley (winter)", "setting": "[11]; [22]", "value": 20},
      {"measurement": "Barley (winter) plant response rating (0 to 100 scale)", "setting": "[11]", "value": 20}
    ]},
    {"molecule": "CCC=CCn1c(=O)on(C(=O)N(c2ccc(F)cc2)C(C)C)c1=O", "note": "[Compound 286]", "values": [
      {"measurement": "Morningglory plant response rating", "setting": "[1]; [23]", "value": 0},
      {"measurement": "Morningglory plant response rating", "setting": "[1]; [24]", "value": 0},
      {"measurement": "Plant response rating, Morningglory", "setting": "[1]; [25]", "value": 0},
      {"measurement": "Morningglory plant response rating", "setting": "[1]; [26]", "value": 1},
      {"measurement": "Morningglory plant response rating", "setting": "[1]; [27]", "value": 3},
      {"measurement": "Morningglory plant response rating", "setting": "[1]; [28]", "value": 0},
      {"measurement": "Plant response rating, Morningglory", "setting": "[1]; [29]", "value": 8},
      {"measurement": "Rape plant response rating", "setting": "[2]; [23]", "value": 0},
      {"measurement": "Rape plant response rating", "setting": "[2]; [24]", "value": 3},
      {"measurement": "Plant response rating, Rape", "setting": "[2]; [25]", "value": 7},
      {"measurement": "Rape plant response rating", "setting": "[2]; [26]", "value": 0},
      {"measurement": "Rape plant response rating", "setting": "[2]; [27]", "value": 2},
      {"measurement": "Rape plant response rating", "setting": "[2]; [28]", "value": 0},
      {"measurement": "Plant response rating, Rape", "setting": "[2]; [29]", "value": 5},
      {"measurement": "S. Flatsedge plant response rating", "setting": "[3]; [30]", "value": 0},
      {"measurement": "S. Flatsedge plant response rating", "setting": "[3]; [31]", "value": 0},
      {"measurement": "S. Flatsedge plant response rating", "setting": "[3]; [32]", "value": 0},
      {"measurement": "S. Flatsedge plant response rating", "setting": "[3]; [33]", "value": 0},
      {"measurement": "Barnyardgrass plant response rating", "setting": "[4]; [30]", "value": 0},
      {"measurement": "Barnyardgrass plant response rating", "setting": "[4]; [31]", "value": 0},
      {"measurement": "Barnyardgrass plant response rating", "setting": "[4]; [32]", "value": 0},
      {"measurement": "Barnyardgrass plant response rating", "setting": "[4]; [33]", "value": 4},
      {"measurement": "Blackgrass plant response rating (0 to 100 scale)", "setting": "[6]", "value": 10},
      {"measurement": "Green foxtail plant response rating (0 to 100 scale)", "setting": "[7]", "value": 55},
      {"measurement": "I. Ryegrass plant response rating (0 to 100 scale)", "setting": "[8]", "value": 40},
      {"measurement": "Wheat (winter) plant response rating (0 to 100 scale)", "setting": "[9]", "value": 40},
      {"measurement": "Wild oat plant response rating (0 to 100 scale)", "setting": "[10]", "value": 10},
      {"measurement": "Barley (winter) plant response rating (0 to 100 scale)", "setting": "[11]", "value": 5}
    ]}
  ]
}
